US8946211B2, “Fused aminodihydrothiazine derivatives” (Eisai R&D Management Co., Ltd., priority 2008, dated 2015)
pIC50: −log10 of the molar value. Where two headings read alike, the source gives them in different places.

System: Aβ42 production
Test: Quantification of Aβ peptide in culture of neurons from rat fetus brain (Aβ ELISA)
Type: cell-based
Settings: rat primary cortical neuronal culture (embryonic day 18 Wistar rats), medium collected three days after addition of the compound, Aβx-42 ELISA, read-out: Aβ42 production reducing effect IC50
Description: Quantification of Aβ Peptide in Culture of Neurons from Rat Fetus Brain
(1) Rat Primary Neuronal Culture
Primary neuronal cultures were prepared from the cerebral cortex of embryonic day 18 Wistar rats (Charles River Japan, Yokohama, Japan). Specifically, the embryos were aseptically removed from pregnant rats under ether anesthesia. The brain was isolated from the embryo and immersed in an ice-cold L-15 medium (such as Invitrogen Corp. Cat #11415-064, Carlsbad, Calif., USA, or SIGMA L1518). The cerebral cortex was collected from the isolated brain under a stereoscopic microscope. The cerebral cortex fragments collected were enzymatically treated in an enzyme solution containing 0.25% trypsin (Invitrogen Corp. Cat #15050-065, Carlsbad, Calif., USA) and 0.01% DNase (Sigma D5025, St. Louis, Mo., USA) at 37° C. for 30 minutes to disperse the cells. Here, the enzymatic reaction was stopped by adding inactivated horse serum to the solution. The enzymatically treated solution was centrifuged at 1,500 rpm for five minutes to remove the supernatant. 5 to 10 mL of a medium was added to the resulting cell mass. Neurobasal medium (Invitrogen Corp. Cat #21103-049, Carlsbad, Calif., USA) supplemented with 2% B27 supplement (Invitrogen Corp. Cat #17504-044, Carlsbad, Calif., USA), 25 μM 2-mercaptoethanol (2-ME, WAKO Cat #139-06861, Osaka, Japan), 0.5 mM L-glutamine (Invitrogen Corp. Cat #25030-081, Carlsbad, Calif., USA), and Antibiotics-Antimycotics (Invitrogen Corp. Cat #15240-062, Carlsbad, Calif., USA) was used as the medium (Neurobasal/B27/2-ME). However, the above Neurobasal medium not supplemented with 2-ME (Neurobasal/B27) was used for the assay. The cells were redispersed by mild pipetting of the cell mass to which the medium was added. The cell dispersion was filtered through a 40-μm nylon mesh (Cell Strainer, Cat #35-2340, Becton Dickinson Labware, Franklin Lakes, N.J., USA) to remove the remaining cell mass, and thus a neuronal cell suspension was obtained. The neuronal cell suspension was diluted with the medium and then plated in a volume of 100 μL/well at an initial cell density of 5×10^5 cells/cm^2 in a 96-well polystyrene culture plate pre-coated with poly-L or D-lysine (Falcon Cat #35-3075, Becton Dickinson Labware, Franklin Lakes, N.J., USA coated with poly-L-lysine using the method shown below, or BIOCOAT™ cell environments Poly-D-lysine cell ware 96-well plate, Cat #35-6461, Becton Dickinson Labware, Franklin Lakes, N.J., USA). Poly-L-lysine coating was carried out as follows. 100 μg/mL of a poly-L-lysine (SIGMA P2636, St. Louis, Mo., USA) solution was aseptically prepared with a 0.15 M borate buffer (pH 8.5). […]

| Compound | pIC50 | pIC50 (Neuron, 72 h) |
| --- | --- | --- |
| NC1=N[C@@]2(c3cc(NC(=O)c4ncccc4C(F)(F)F)ccc3F)CCCCC[C@H]2CS1 [Example 252] | 6.73 | – |
| NC1=N[C@@]2(c3cc(NC(=O)c4ccc(Cl)cn4)ccc3F)CCCCC[C@H]2CS1 (single isomer, unassigned) [Example 248, N-[3-((4aR*,9aS*)-2-amino-4,4a,5,6,7,8,9,9a-octahydrocyclohepta[d][1,3]thiazin-9a-yl)-4-fluorophenyl]-5-chloropyridine-2-carboxamide] | – | 7.80 |
| NC1=N[C@@]2(c3cc(NC(=O)c4ncccc4F)ccc3F)CCCCC[C@H]2CS1 [Example 251] | 6.92 | – |
| NC1=N[C@@]2(c3cc(NC(=O)c4ncccc4Br)ccc3F)CCCCC[C@H]2CS1 [Example 253] | 6.77 | – |
